Reference: ChEMBL document CHEMBL3621155, “The status of the lysophosphatidic acid receptor type 1 (LPA1R)” (Medchemcomm, 2015)
Each block holds one molecule with its values, some of them ahead of it.

Columns and labels:
[1] = target: T1, Lysophosphatidic acid receptor 3 (Homo sapiens, UniProt Q9UBY5); assay: Agonist activity at human LPA3 receptor transfected in RH7777 cells assessed as mobilization of Ca2+ by fluorometric analysis; format: functional, cell-based
T1 sequence (Q9UBY5 whole entry): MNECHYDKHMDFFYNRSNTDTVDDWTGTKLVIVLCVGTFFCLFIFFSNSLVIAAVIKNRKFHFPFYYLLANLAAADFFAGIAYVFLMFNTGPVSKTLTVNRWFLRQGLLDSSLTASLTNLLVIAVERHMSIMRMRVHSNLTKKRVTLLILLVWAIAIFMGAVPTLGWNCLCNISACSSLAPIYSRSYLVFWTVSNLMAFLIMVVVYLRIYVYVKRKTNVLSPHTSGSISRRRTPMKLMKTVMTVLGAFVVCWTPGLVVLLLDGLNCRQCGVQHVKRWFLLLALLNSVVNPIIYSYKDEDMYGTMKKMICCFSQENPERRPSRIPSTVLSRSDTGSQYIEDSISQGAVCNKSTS

[2] = target: T2, Lysophosphatidic acid receptor 1 (Homo sapiens, UniProt Q92633); assay: Agonist activity at human LPA1 receptor transfected in RH7777 cells assessed as mobilization of Ca2+ by fluorometric analysis; format: functional, cell-based
T2 sequence (Q92633 whole entry): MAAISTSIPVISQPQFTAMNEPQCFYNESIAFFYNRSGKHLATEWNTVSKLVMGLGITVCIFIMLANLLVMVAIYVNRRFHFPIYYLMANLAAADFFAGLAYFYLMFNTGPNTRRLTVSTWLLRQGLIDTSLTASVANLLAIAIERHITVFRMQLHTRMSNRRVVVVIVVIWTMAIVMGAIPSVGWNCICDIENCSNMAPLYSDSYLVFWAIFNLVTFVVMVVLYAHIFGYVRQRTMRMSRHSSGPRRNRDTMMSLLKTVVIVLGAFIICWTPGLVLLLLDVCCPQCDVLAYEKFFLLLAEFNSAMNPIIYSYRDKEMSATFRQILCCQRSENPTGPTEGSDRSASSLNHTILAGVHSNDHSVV

[3] = target: T2, Lysophosphatidic acid receptor 1; assay: Antagonist activity at human LPA1 receptor expressed in CHO cells assessed as inhibition of LPA-induced calcium mobilization preincubated with protein followed by LPA induction measured for 2 mins by Fluo-4 dye-based FLIPR assay; format: functional, cell-based
[4] = target: T3, Lysophosphatidic acid receptor 2 (Homo sapiens, UniProt Q9HBW0); assay: Agonist activity at human LPA2 receptor transfected in HEK293T cells after 30 mins by GTP[gamma-35S] binding assay; format: cell-based, HEK-293T
T3 sequence (Q9HBW0 whole entry): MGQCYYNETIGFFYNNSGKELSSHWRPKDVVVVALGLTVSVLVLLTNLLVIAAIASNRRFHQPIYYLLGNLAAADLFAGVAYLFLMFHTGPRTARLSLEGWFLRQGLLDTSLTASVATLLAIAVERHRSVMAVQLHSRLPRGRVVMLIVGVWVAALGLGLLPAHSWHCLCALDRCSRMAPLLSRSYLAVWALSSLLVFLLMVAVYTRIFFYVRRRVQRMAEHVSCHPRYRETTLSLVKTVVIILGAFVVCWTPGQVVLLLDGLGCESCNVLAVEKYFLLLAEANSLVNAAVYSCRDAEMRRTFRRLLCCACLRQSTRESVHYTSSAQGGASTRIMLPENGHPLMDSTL

[5] = target: T2, Lysophosphatidic acid receptor 1; assay: Agonist activity at human LPA1 receptor transfected in HEK293T cells after 30 mins by GTP[gamma-35S] binding assay; format: cell-based, HEK-293T
[6] = Displacement of [32P]diazirine-LPA from LPA receptor in mouse N1E-115 cells preincubated for 1 hr in dark followed by UV irradiation for 5 mins by scintillation counting analysis; format: cell-based
[7] = target: T1, Lysophosphatidic acid receptor 3; assay: Agonist activity at human LPA3 receptor transfected in HEK293T cells after 30 mins by GTP[gamma-35S] binding assay; format: cell-based, HEK-293T
[8] = target: Lysophosphatidic acid receptor 1 (Mus musculus, UniProt P61793); assay: Antagonist activity at mouse LPA1 receptor transfected in HEK293T cells; format: cell-based, HEK-293T
Chain of Lysophosphatidic acid receptor 1 (Mus musculus, UniProt P61793) (P61793 whole entry): as the sequence (Q92633 whole entry) above, with I4A, I8S, P22Q, H40Y, I61V, E193D, N194H, I269V, S331N, T335N counted along it

[9] = target: T1, Lysophosphatidic acid receptor 3; assay: Antagonist activity at human LPA3 receptor transfected in HEK293T cells; format: cell-based, HEK-293T
[10] = target: T2, Lysophosphatidic acid receptor 1; assay: Antagonist activity at human LPA1 receptor expressed in CHO cells assessed as inhibition of LPA-induced calcium mobilization preincubated for 30 mins followed by LPA induction by FLIPR Calcium 4 dye-based fluorometric analysis; format: functional, cell-based
[11] = target: T1, Lysophosphatidic acid receptor 3; assay: Antagonist activity at human LPA3 receptor expressed in CHO cells assessed as inhibition of LPA-induced calcium mobilization preincubated for 30 mins followed by LPA induction by FLIPR Calcium 4 dye-based fluorometric analysis; format: functional, cell-based
[12] = target: T3, Lysophosphatidic acid receptor 2; assay: Antagonist activity at human LPA2 receptor expressed in CHO cells assessed as inhibition of LPA-induced calcium mobilization preincubated for 30 mins followed by LPA induction by FLIPR Calcium 4 dye-based fluorometric analysis; format: functional, cell-based
[13] = target: T4, Lysophosphatidic acid receptor 4 (Homo sapiens, UniProt Q99677); assay: Antagonist activity at human LPA4 receptor expressed in rat B103 cells assessed as inhibition of LPA-induced calcium mobilization preincubated for 30 mins followed by LPA induction by FLIPR Calcium 4 dye-based fluorometric analysis; format: functional, cell-based
T4 sequence (Q99677 whole entry): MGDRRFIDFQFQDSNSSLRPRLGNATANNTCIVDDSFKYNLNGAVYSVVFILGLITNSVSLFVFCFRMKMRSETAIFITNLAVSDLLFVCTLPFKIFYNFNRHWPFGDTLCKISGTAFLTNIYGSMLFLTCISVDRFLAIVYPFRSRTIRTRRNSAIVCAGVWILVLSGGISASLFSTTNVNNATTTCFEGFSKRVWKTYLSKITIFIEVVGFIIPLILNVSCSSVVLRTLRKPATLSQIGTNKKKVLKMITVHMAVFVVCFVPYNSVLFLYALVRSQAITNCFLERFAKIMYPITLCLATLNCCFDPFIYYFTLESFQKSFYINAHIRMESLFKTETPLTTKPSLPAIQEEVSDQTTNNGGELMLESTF

[14] = target: T3, Lysophosphatidic acid receptor 2; assay: Antagonist activity at human LPA2 receptor expressed in rat B103 cells assessed as inhibition of LPA-induced calcium mobilization preincubated for 30 mins followed by LPA induction by FLIPR Calcium 4 dye-based fluorometric analysis; format: functional, cell-based
[15] = target: Lysophosphatidic acid receptor 5 (Homo sapiens, UniProt Q9H1C0); assay: Antagonist activity at human LPA5 receptor expressed in rat B103 cells assessed as inhibition of LPA-induced calcium mobilization preincubated for 30 mins followed by LPA induction by FLIPR Calcium 4 dye-based fluorometric analysis; format: functional, cell-based
Chain of Lysophosphatidic acid receptor 5 (Q9H1C0 whole entry): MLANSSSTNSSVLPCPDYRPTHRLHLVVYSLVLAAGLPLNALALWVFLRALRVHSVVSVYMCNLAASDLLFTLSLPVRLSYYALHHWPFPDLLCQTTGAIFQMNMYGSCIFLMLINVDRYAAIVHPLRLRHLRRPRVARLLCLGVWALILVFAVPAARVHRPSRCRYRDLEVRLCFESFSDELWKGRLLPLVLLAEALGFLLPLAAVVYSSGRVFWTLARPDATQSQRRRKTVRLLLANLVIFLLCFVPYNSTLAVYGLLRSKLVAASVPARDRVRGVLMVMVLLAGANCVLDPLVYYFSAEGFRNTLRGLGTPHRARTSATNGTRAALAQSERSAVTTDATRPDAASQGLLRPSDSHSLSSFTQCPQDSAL

[16] = target: T3, Lysophosphatidic acid receptor 2; assay: Antagonist activity at human LPA2 receptor expressed in RH7777 cells assessed as inhibition of LPA-induced calcium mobilization by Fura-2 AM probe-based fluorometric analysis; format: functional, cell-based
[17] = target: T4, Lysophosphatidic acid receptor 4; assay: Antagonist activity at human LPA4 receptor expressed in CHO cells assessed as inhibition of LPA-induced calcium mobilization by Fura-2 AM probe-based fluorometric analysis; format: functional, cell-based
[18] = target: T2, Lysophosphatidic acid receptor 1; assay: Antagonist activity at human LPA1 receptor expressed in RH7777 cells assessed as inhibition of LPA-induced calcium mobilization by Fura-2 AM probe-based fluorometric analysis; format: functional, cell-based
[19] = target: T1, Lysophosphatidic acid receptor 3; assay: Antagonist activity at human LPA3 receptor expressed in RH7777 cells assessed as inhibition of LPA-induced calcium mobilization by Fura-2 AM probe-based fluorometric analysis; format: functional, cell-based
[20] = target: Lysophosphatidic acid receptor 1/lysophosphatidic acid receptor 3 (Rattus norvegicus, UniProt Q8K5E0+P61794); assay: Antagonist activity at LPA1/LPA3 receptor (unknown origin); format: protein assay, Homo sapiens

Compound: CCCCCCCC/C=C\CCCCCCCCOC[C@H](COP(O)(O)=S)OC
- EC50 [1]: 62 nM
- EC50 [2]: 790 nM

- IC50 [3]: 6.6 nM
Compound: COc1ccc([C@@H](O)C(=O)N(CCCc2ccccc2)Cc2nc(C(=O)NS(C)(=O)=O)c(C)s2)c(F)c1

Compound: CCCCCCCC/C=C\CCCCCCCC(=O)NCCOP(O)(O)=S
- EC50 [4]: 108 nM
- EC50 [5]: 40 nM

Compound: CCCCCCCC/C=C\CCCCCCCC(=O)NCCSP(=O)(O)O
- EC50 [5]: 318 nM

- IC50 [6]: 10 nM
Compound: CCCCCCCC/C=C\CCCCCCCC(=O)OC[C@@H](O)COP(=O)(O)O [LYSOPHOSPHATIDIC ACID]

Compound: CCCCCCCC/C=C\CCCCCCCCOC[C@@H](COP(O)(O)=S)OC
- EC50 [1]: 80 nM
- EC50 [2]: 571 nM

Compound: CCCCCCCC/C=C\CCCCCCCC(=O)OC[C@@H](COP(O)(O)=S)OC
- EC50 [7]: 276 nM

- IC50 [8]: 5210 nM
- IC50 [9]: 6450 nM
Compound: CCCCCCCC/C=C\CCCCCCCC(=O)N[C@H](COP(=O)(O)O)Cc1ccc(OCc2ccccc2)cc1

- IC50 [10]: 17 nM
- IC50 [11]: 1600 nM
- IC50 [12]: 1700 nM
Compound: Cc1noc(-c2ccc(-c3ccc(CC(=O)O)cc3)cc2)c1NC(=O)O[C@H](C)c1ccccc1Cl

- IC50 [13]: > 8000 nM
- IC50 [14]: > 8000 nM
- IC50 [10]: 25 nM
- IC50 [15]: > 8000 nM
- IC50 [11]: > 8000 nM
Compound: Cc1noc(-c2ccc(-c3ccc(CC(=O)O)cc3)cc2)c1NC(=O)O[C@H](C)c1ccccc1

- IC50 [10]: < 50 nM
- IC50 [11]: > 500 nM
Compound: Cc1nsc(-c2ccc(-c3ccc(CC(=O)O)cc3)cc2)c1NC(=O)O[C@H](C)c1ccccc1Cl

- IC50 [16]: 1420 nM
- IC50 [17]: 266 nM
- IC50 [18]: 1500 nM
- IC50 [19]: 1160 nM
Compound: CCCCCC/C=C\CCCCCCCC(=O)OC[C@@H](O)CC(Br)P(=O)(O)O (some centres not stated)

- IC50 [20]: < 100 nM
Compound: COc1ccc(C(=O)NC2(C(=O)O)Cc3ccccc3C2)cc1OCCc1cccc(C)c1 [FIPAXALPARANT]
